Data published in patent publication US10570180B2, “Anti-bacterial agents and their use in therapy” (priority 2015, dated 2020).
Read-outs that look alike come from different tables or passages of the source. Ends that are not written are not given here.

How the values were obtained:
[1] = tested on: E. coli BL21 (ripl); test: Overexpression of APIM peptides in E. coli, growth; format: cell-based; settings: induction with 1 mM IPTG, no cell-penetrating peptide; FIG. 9, 10
Source text: In order to verify further that the anti-microbial effect of the APIM peptides arise from the APIM sequence, peptides containing only the APIM sequence (i.e. without a cell-penetrating peptide) were over-expressed in E. coli using the expression vector pET28. The APIM peptide was expressed alone or as part of a fusion protein with EYFP. Expression of EYFP alone was used as a control.
The expression vectors containing the respective peptides were transfected into the bacterial strain E. coli BL21 (ripl). Single colonies, 4-6 of each strain, were inoculated in […] LB media (+Km/Clm) in 96 wells plates, and incubated at 37° C. Overnight cultures were diluted 1:100 and grown for 1 h before induction with 1 mM IPTG (initiating peptide expression). OD was measured every hour.
In order to verify that the extended APIM peptides have an anti-bacterial effect, peptides containing only the “extended” APIM sequence (i.e. without a cell-penetrating peptide) were over-expressed in E. coli using the expression vector pET28, using the method described in Example 7. […] The bacterial strain without a plasmid was used as a further control.

[2] = tested on: gram negative bacteria (Pseudomonas aeruginosa ATCC 15692, Acinetobacter baumenni ATCC 19606, Escherichia coli ATCC 25922, Pseudomonas aeruginosa TO-5A); format: cell-based
Protocol: (§1) The minimum inhibitory concentration (MIC) of ATX-101 (SEQ ID NO: 1289) was determined for various gram negative and gram positive bacteria. The bacteria, Pseudomonas aeruginosa ATCC 15692, Acinetobacter baumenni ATCC 19600, Escherichia coli ATCC 25922, Pseudomonas aeruginosa TO-5A (clinical isolate), Enterococous faecium CCUG 37832, Enterococcus faecium CTC 492, Micrococcus luteus ATCC 9341 and Escherichie coli NCIMB 12210 were grown in the presence of various concentrations of ATX-101 and/or antibiotic.
(§2) ATX-101 was dissolved in Mueller-Hinton broth to 1.25 times of the desired assay concentration. Antibiotics were dissolved in Mueller-Hinton broth and Mueller-Hinton broth with ATX-101 at a concentration of 1.25 times the highest desired assay concentrations. Antibiotics were pharmaceutical grade purchased from Sigma-Aldrich.
(§3) Two-fold serial dilutions of antibiotics were made in Mueller-Hinton with different concentrations of ATX-101, and the solutions were placed in four parallel wells is Nunc 384-well micro plates (30 μl per well in Nunc 242757 microplates). A group of 8 wells with no addition of antibiotics for each ATX-101 concentration was included on each micro plate as a growth reference.
(§4) At the day of analysis, overnight TSB cultures inoculated from freeze stocks (6 ml in 50 ml tube tilted to 45-degrees angle, 200 rpm, 2.5 cm amplitude, 37° C.) were diluted in TSB until the OD800 was 0.10, and further diluted 1:40 in Mueller-Hinton broth. Each well in the 384-well assay plates was inoculated with 7.5 μl of the diluted culture, giving the same dilution of the culture in the assay cultures. The microplates were placed in plastic bags and incubated without shaking at 37° C. The optical density at 600 nm in the microwells was measured after approximately 19 hours of incubation, and the relative growth yield was calculated based on the growth in the reference groups. The MIC value was set to the highest concentration giving less than 30% growth in all 4 parallel wells within the sample groups. The microplates were further incubated for 6 hours, and optical density in the cultures was measured once more for confirmation of the estimated MIC-values.

[3] = tested on: gram positive bacteria (Enterococcus faecium CCUG 37832, Enterococcus faecium CTC 492, Micrococcus luteus ATCC 9341); format: cell-based
Protocol: as §1, §2, §3, §4

[4] = tested on: E. faecium CTC 492; test: MIC assay of antibiotics with ATX-101; format: cell-based, Enterococcus faecium
Protocol: as §1, §2, §3, §4
as §2, with “The APIM peptide was” for “ATX-101 was”, “with APIM” for “with ATX-101”
as §3, with “APIM,” for “ATX-101,”, “in” for “is”, “APIM” for “ATX-101”, “as” for “as a”
as §4, with “inoculated” for “inoculated from”, “OD600” for “OD800”, “culture.” for “culture, giving the same dilution of the culture in the assay cultures.”, “yield in each well” for “yield”

[5] = tested on: E. coli NCIMB 12210; test: MIC assay of antibiotics with ATX-101; format: cell-based, Escherichia coli; settings: FIG. 4
Protocol: as §1, §2, §3, §4
as §2, with “The APIM peptide was” for “ATX-101 was”, “with APIM” for “with ATX-101”
as §3, with “APIM,” for “ATX-101,”, “in” for “is”, “APIM” for “ATX-101”, “as” for “as a”
as §4, with “inoculated” for “inoculated from”, “OD600” for “OD800”, “culture.” for “culture, giving the same dilution of the culture in the assay cultures.”, “yield in each well” for “yield”

[6] = tested on: E. faecium TO-12; format: cell-based
Protocol: as §2, §3, §4
(§5) The MICS for various APIM peptides were determined for various bacteria, as described above.

[7] = tested on: P. aeruginosa; format: cell-based
Protocol: as §2, §3, §4, §5

[8] = tested on: Staphylococcus aureus NCTC 6571; format: cell-based; settings: for MIC: NCTC 6571
Protocol: as §2, §3, §4, §5

[9] = tested on: Staphylococcus aureus MRSA 1040s; test: microbe, parasite or virus in culture; format: cell-based
Protocol: as §2, §3, §4
as §2, with “The APIM peptide was” for “ATX-101 was”, “with APIM” for “with ATX-101”
as §3, with “APIM,” for “ATX-101,”, “in” for “is”, “APIM” for “ATX-101”, “as” for “as a”
as §4, with “inoculated” for “inoculated from”, “OD600” for “OD800”, “culture.” for “culture, giving the same dilution of the culture in the assay cultures.”, “yield in each well” for “yield”
In view of the anti-bacterial effect of ATX-101 on strains of MRSA, the MIC for a variety of APIM variants was determined using Staphylococcus aureus MRSA 1040s. […] A cell penetrating peptide (SEQ ID NO: 337) present in all of the APIM peptides, was used as a negative control.
Next, the effect of APIM peptides on the MIC of antibiotics was determined using Staphylococcus aureus MRSA 1040s.
as §5

[10] = tested on: Staphylococcus aureus MRSA 1096; format: cell-based
Protocol: as §2, §3
At the day of analysis, overnight TSB cultures inoculated from freeze stocks (6 ml in 50 ml tube tilted to 45-degrees angle, 200 rpm, 2.5 cm amplitude, 37° C.) were diluted in TSB until the OD800 was 0.10, and further diluted 1:40 in Mueller-Hinton broth. […] The optical density at 600 nm in the microwells was measured after approximately 19 hours of incubation, and the relative growth yield was calculated based on the growth in the reference groups. […] The microplates were further incubated for 6 hours, and optical density in the cultures was measured once more for confirmation of the estimated MIC-values.

[11] = tested on: E. faecium CCUG 37832 (TO-3); format: cell-based, Enterococcus faecium
Protocol: as §2, §3, §4
Accordingly, concentrations of 8 μg/ml and 16 μg/ml of ATX-101 were combined with various antibiotics selected from; 2,4-Diamin, S. methizol, S. methoxa, S. dimetho, Surfaceta, Trimeth, Flumeq, Levoflox, Pruliflox, Metronid and Nitrofur.
as §5

[12] = tested on: MRSA 1040 (u50) biofilm; test: MRSA biofilm under flow (IBIDI flow-system); format: cell-based, Staphylococcus aureus
Protocol: The IBIDI flow-system coupled with EVOS Auto Imaging system was optimized and used for testing the effect of ATX-101 on MRSA biofilm under flow. MRSA 1040 (u50) was used as model organism; it normally produces a dense biofilm in the growth channel during 36 hours of flow. The effect of 3 different concentrations of ATX-101 was tested (7 μg/ml, 3.5 μg/ml and 0.8 μg/ml). The flow system was programmed with share stress similar to those found in capillary networks (3.49 dyne/cm^2), 2% Luria Bertani (LB) was used for dilution and flow medium.

[13] = tested on: bacteria; test: MIC of other APIM peptides on bacteria; format: cell-based; settings: Example 2
[14] = starting concentration of ATX-101 150 μg/ml
[15] = concentration of APIM peptide 15 μg/ml, MRSA 1040s

With RFSLK (APIM variant) [SEQ ID NO: 1291] the “bacterial growth on overexpression of APIM peptide (OD)” value (“bacterial growth on overexpression” for short) [1] was “particularly effective”.
RWLVP (APIM variant) [SEQ ID NO: 1292] was tested, and the “bacterial growth on overexpression” value [1] was “particularly effective”.
For MDRWLVKWKKKRKIRRRRRRRRRRR [ATX-101], the MIC [2] was 5 to 10 mg/L, the “growth inhibited by ATX-101 from (concentration)” value ([2]; FIG. 1, gram negative bacteria) was “about 1 μM” and the MIC [3] was “about 1 μg/ml”. The “growth inhibited by ATX-101 from (concentration)” value ([3]; FIG. 2, gram positive bacteria) was “about 1 μM”, the “effect on inhibition of bacterial growth by novobiocin” value ([4]; 6.5 μg/ml or 13 μg/ml ATX-101, about 0.5-2 μg/ml novobiocin) was “enhances the inhibition of bacterial growth” and the “growth at higher concentration of ATX-101” value ([4]; 20 μg/ml ATX-101, with or without ampicillin or novobiocin) was “no growth was observed”. For the same substance, the “reduction of the MIC for novobiocin” value [5] was 16 fold, the MIC [6] was 16.8 µM and the MIC [7] was 37.9 µM. The MIC [8] was 37.9 µM, the “MIC of ATX-101” value ([8]; Staphylococcus aureus NCTC 6571) was 150 mg/L and the Factor of inhibition [8, 14] was 1. For the same substance, the MIC ([9]; 1040s) was 7.5 µM, the “MIC of ATX-101” value ([9]; Table 4, MRSA 1040s) was 37.5 mg/L and the MIC ([9]; Table 5, peptide alone, MRSA 1040s) was 32 mg/L. For the same substance, the MIC ([9]; Table 6, alone, MRSA 1040s) was 16 mg/L, the “MIC of Erythromycin (Relative values)” value ([9]; concentration of APIM peptide 7.5 μg/ml, MRSA 1040s) was 1000 and the “MIC of Erythromycin (Relative values)” value [9, 15] was 125. For the same substance, the Factor of inhibition [9, 14] was 0.25, the “MIC of ATX-101” value ([10]; MRSA 1096) was 9.375 mg/L and the Factor of inhibition [10, 14] was 0.0625. For the same substance, the MIC ([11]; ATX-101 alone, text b504) was 7.5 mg/L, the MIC ([11]; Table 9, E. faecium TO-3) was 7.5 µM and the biofilm formation ([12]; 0.8 μg/ml ATX-101, 36 hours, FIG. 15) was “biofilm formation is inhibited”. The biofilm formation ([12]; 7 μg/ml ATX-101, 36 hours, FIG. 14) was “biofilm formation is inhibited” and the “effect on MRSA biofilm under flow” value ([12]; 7 μg/ml, 3.5 μg/ml and 0.8 μg/ml) was “Good effect”.
In the case of “MDRWAVKWKKKRKIRRRRRRRRRRR [SEQ ID NO: 1299]”, the MIC [6] is reported as 25.3 µM, the MIC [8] is reported as 37.9 µM and the “MIC of Erythromycin (Relative values)” value [9, 15] is reported as 200. The MIC ([11]; CCUG 37832) was 7.5 µM and the “MIC compared with ATX-101” value [13] was “lower MICs than ATX-101”.
For RWLVK (APIM) [SEQ ID NO: 1290], the “bacterial growth on overexpression” value [1] was “inhibits bacterial growth”.
